According to ChEMBL document CHEMBL1909046, “DrugMatrix in vitro pharmacology data”:

What was measured:
[1] = biological target: T1, 5-hydroxytryptamine receptor 2C (Homo sapiens, UniProt P28335); test: DRUGMATRIX: Serotonin (5-Hydroxytryptamine) 5-HT2C radioligand binding (ligand: [3H] Mesulergine); type: cell membranes, CHO-K1, Membrane; details: Not Active = under 50% inhibition at 10 µM; for Ki: read-out: Ki
T1 sequence (P28335 whole entry): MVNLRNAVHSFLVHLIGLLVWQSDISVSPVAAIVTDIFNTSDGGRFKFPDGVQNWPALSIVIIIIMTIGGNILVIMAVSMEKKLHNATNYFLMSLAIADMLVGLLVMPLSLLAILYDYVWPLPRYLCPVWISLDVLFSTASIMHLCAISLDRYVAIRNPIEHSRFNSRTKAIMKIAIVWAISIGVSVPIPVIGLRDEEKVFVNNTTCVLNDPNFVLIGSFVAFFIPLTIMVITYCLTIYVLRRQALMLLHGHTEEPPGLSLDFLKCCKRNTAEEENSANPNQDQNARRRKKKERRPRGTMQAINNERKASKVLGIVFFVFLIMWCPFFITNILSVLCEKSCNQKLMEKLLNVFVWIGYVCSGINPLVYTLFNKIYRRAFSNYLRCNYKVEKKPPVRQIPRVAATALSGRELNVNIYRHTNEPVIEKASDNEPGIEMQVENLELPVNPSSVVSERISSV

D(3) dopamine receptor = D(3) dopamine receptor (Homo sapiens, UniProt P35462); test: DRUGMATRIX: Dopamine D3 radioligand binding (ligand: [3H] Spiperone); type: cell membranes, CHO, Membrane; details: cho
Sequence of D(3) dopamine receptor (P35462 whole entry): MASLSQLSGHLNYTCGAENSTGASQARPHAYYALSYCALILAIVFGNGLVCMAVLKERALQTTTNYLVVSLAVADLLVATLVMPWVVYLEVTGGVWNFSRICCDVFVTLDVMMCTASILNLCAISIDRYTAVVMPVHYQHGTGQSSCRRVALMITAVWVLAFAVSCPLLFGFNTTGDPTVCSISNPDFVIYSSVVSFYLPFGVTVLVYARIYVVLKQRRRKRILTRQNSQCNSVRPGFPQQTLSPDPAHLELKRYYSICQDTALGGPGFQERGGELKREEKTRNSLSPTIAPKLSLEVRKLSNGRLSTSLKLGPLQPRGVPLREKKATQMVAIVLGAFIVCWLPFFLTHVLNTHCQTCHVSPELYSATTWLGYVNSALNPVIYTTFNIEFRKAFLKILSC

Cytochrome P450 2D6 = Cytochrome P450 2D6 (Homo sapiens, UniProt P10635); further: in other assays of this panel Not Active means under 50% inhibition at 10 µM
Sequence of Cytochrome P450 2D6 (P10635 whole entry): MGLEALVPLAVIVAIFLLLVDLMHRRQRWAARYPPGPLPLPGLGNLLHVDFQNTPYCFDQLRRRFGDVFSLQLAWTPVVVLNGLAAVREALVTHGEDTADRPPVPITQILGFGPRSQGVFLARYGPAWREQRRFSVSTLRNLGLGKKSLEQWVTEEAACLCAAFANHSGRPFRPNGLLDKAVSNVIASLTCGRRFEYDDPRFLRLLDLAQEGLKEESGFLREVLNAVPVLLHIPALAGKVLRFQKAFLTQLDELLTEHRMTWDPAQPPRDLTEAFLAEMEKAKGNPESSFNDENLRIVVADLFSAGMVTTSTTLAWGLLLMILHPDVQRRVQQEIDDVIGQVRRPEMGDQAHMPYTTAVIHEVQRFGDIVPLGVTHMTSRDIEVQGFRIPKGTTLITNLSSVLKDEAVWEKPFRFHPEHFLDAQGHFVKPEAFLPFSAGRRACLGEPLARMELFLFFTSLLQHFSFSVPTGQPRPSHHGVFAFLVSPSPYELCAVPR

[2] = biological target: T2, Receptor-type tyrosine-protein phosphatase C (Homo sapiens, UniProt P08575); design: species or system Escherichia coli;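 further: inhibition of CD45 enzyme activity measured using DiFMUP as substrate; in other assays of this panel Not Active means under 50% inhibition at 10 µM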
T2 sequence (P08575 whole entry): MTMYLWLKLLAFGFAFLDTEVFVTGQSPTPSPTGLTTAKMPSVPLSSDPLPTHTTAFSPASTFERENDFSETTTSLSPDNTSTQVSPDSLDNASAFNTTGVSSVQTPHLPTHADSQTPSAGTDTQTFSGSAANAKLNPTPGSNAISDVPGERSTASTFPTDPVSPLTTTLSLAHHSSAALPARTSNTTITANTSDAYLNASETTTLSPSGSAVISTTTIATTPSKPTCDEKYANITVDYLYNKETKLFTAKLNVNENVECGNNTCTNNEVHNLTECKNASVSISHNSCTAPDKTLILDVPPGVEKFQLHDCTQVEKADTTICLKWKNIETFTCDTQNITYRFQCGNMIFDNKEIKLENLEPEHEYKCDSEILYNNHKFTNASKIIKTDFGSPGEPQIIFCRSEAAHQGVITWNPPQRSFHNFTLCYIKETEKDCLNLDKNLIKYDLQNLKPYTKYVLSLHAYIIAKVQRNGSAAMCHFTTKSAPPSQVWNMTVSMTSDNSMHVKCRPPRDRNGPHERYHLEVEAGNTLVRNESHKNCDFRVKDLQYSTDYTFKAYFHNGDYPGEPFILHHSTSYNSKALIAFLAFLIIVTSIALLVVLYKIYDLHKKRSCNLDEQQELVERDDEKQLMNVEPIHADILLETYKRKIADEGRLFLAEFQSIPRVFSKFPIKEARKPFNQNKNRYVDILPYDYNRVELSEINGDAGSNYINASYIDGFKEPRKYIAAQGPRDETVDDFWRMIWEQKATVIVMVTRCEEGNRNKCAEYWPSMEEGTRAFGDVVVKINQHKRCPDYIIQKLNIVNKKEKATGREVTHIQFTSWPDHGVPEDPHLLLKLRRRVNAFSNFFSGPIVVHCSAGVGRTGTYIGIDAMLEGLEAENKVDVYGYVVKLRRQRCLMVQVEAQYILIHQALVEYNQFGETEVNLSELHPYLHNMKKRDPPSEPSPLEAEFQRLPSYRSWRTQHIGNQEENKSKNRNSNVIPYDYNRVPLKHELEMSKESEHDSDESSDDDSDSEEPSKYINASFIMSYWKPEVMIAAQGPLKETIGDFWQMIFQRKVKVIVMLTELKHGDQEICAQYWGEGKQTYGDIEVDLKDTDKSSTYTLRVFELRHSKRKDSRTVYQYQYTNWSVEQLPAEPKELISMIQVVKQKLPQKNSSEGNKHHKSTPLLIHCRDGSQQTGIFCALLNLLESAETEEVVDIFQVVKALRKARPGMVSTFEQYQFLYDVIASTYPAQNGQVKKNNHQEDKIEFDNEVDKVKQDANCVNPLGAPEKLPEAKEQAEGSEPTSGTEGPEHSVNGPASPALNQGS

[3] = biological target: Prostaglandin G/H synthase 1 (Homo sapiens, UniProt P23219); test: biochemical; type: tissue-based, Platelet; details: platelet;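 further: inhibition of COX-1 enzyme activity, with arachidonic acid supplied as substrate; in other assays of this panel Not Active means under 50% inhibition at 10 µM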
Sequence of Prostaglandin G/H synthase 1 (P23219 whole entry): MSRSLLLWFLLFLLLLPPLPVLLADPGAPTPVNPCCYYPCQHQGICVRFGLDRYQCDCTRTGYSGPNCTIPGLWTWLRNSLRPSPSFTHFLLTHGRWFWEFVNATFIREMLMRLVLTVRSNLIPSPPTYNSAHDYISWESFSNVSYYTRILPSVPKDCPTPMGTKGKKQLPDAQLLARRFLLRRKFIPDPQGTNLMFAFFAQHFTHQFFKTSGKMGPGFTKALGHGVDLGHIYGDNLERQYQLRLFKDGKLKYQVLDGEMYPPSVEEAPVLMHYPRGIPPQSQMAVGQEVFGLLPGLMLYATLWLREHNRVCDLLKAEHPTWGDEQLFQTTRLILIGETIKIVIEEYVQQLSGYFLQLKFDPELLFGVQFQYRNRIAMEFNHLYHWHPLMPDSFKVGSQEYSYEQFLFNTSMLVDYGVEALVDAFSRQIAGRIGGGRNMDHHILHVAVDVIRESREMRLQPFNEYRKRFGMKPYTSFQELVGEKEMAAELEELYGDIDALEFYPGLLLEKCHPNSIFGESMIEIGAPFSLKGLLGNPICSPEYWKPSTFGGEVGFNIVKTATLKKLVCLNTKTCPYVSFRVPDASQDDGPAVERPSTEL

[4] = DRUGMATRIX: Tumor Necrosis Factor (TNF), Non-Selective radioligand binding (ligand: [125I] TNF-alpha); type: cell membranes, Membrane; details: u-937; Not Active = under 50% inhibition at 10 µM
Androgen receptor = biological target: T3, Androgen receptor (Rattus norvegicus, UniProt P15207); further: in other assays of this panel Not Active means under 50% inhibition at 10 µM
T3 sequence (P15207 whole entry): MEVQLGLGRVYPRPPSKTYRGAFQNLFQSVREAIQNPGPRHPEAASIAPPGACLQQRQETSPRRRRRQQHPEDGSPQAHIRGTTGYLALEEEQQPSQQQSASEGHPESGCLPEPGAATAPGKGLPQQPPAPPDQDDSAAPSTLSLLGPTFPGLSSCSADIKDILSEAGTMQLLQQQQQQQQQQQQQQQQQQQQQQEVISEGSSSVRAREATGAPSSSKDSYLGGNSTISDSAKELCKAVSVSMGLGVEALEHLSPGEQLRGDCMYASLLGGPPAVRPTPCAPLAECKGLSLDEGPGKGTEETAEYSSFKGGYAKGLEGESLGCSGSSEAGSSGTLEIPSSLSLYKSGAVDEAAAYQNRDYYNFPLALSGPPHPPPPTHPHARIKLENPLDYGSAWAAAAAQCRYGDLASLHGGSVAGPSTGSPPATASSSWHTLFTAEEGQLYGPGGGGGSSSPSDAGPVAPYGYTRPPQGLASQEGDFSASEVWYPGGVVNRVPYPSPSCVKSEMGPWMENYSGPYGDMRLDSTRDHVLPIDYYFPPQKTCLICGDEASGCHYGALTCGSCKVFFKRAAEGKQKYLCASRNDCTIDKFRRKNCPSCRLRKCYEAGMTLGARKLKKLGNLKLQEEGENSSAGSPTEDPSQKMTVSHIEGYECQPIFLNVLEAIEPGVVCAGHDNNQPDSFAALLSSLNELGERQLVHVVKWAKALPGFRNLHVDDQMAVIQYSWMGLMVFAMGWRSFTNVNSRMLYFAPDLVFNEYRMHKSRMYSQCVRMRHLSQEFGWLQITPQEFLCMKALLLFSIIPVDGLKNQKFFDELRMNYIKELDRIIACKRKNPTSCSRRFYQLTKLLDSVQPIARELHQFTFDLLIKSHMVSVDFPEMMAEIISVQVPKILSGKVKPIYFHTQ

SMILES	IC50 ([1]; cho-k1)	IC50 (D(3) dopamine receptor)	IC50 (Cytochrome P450 2D6) [nM]	IC50 [2]	IC50 [3]	IC50 [4]	Ki [4]	IC50 ([1]; read-out: IC50) [nM]	Ki [1] [nM]	IC50 (Androgen receptor)
CCCCCCNC(=O)n1cc(F)c(=O)[nH]c1=O [CARMOFUR]	Not Active	Not Active	5000	Not Active	Not Active	Not Active	Not Active			
CN(Cc1cc(Br)cc(Br)c1N)C1CCCCC1 [BROMHEXINE]	Not Active	Not Active	196	Not Active	Not Active	Not Active	Not Active			
CC(N)Cc1c[nH]c2ccc(OCc3cccs3)cc12 (configuration not stated) [BW-723C86]		Not Active	2770	Not Active	Not Active	Not Active	Not Active	204	107	Not Active
CC(=O)[C@]1(O)Cc2c(O)c3c(c(O)c2[C@@H](O[C@H]2C[C@H](N)[C@H](O)[C@H](C)O2)C1)C(=O)c1ccccc1C3=O [IDARUBICIN]	Not Active	Not Active		Not Active	Not Active	Not Active	Not Active			Not Active
Nc1ccc(C(=O)O)c(O)c1 [AMINOSALICYLIC ACID]	Not Active	Not Active		Not Active	Not Active	Not Active	Not Active			Not Active
c1ccc(Cn2ccnc2)cc1	Not Active	Not Active	2000	Not Active	Not Active	Not Active	Not Active			Not Active
COc1cc(/C=C/C(=O)O)ccc1O [FERULATE]	Not Active	Not Active		Not Active	Not Active	Not Active	Not Active			Not Active
COc1cc([C@@H]2c3cc4c(cc3[C@H](O)[C@H]3COC(=O)[C@H]23)OCO4)cc(OC)c1OC [PODOFILOX]	Not Active	Not Active		Not Active	Not Active	Not Active	Not Active			Not Active
C[N+](C)(C)CCOC(N)=O.[Cl-] [CARBACHOL]	Not Active	Not Active		Not Active	Not Active	Not Active	Not Active			Not Active
Cc1cc(C(C)(C)C)c(O)c(C)c1CC1=NCCN1 [OXYMETAZOLINE]		Not Active	200	Not Active	Not Active	Not Active	Not Active	578	303	Not Active
CC(C)Cn1cnc2c(N)nc3ccccc3c21 [IMIQUIMOD]	Not Active	Not Active		Not Active	Not Active	Not Active	Not Active			Not Active
